Key:
[1] = tested on: P. aeruginosa; test: Modified disk diffusion, inhibition zone; conditions: P. aeruginosa (G-)
[2] = tested on: B. subtilis; test: Modified disk diffusion, inhibition zone; conditions: B. subtilis (G+)
[3] = tested on: A. flavus; test: Modified disk diffusion, inhibition zone; conditions: A. flavus (fungi)
[4] = tested on: S. aureus; test: Modified disk diffusion, inhibition zone; conditions: S. aureus (G+)
[5] = tested on: E. coli; test: Modified disk diffusion, inhibition zone; conditions: E. coli (G-)
[6] = tested on: C. albicans; test: Modified disk diffusion, inhibition zone; conditions: C. albicans (fungi)

| melting point [°C] | Compound | Inhibition Zone (IZ) Diameter [1] [mm/mL] | Inhibition Zone (IZ) Diameter [2] [mm/mL] | Inhibition Zone (IZ) Diameter [3] [mm/mL] | Inhibition Zone (IZ) Diameter [4] | Inhibition Zone (IZ) Diameter [5] [mm/mL] | Inhibition Zone (IZ) Diameter [6] [mm] |
| --- | --- | --- | --- | --- | --- | --- | --- |
| 214 to 216 | Clc1ccc(-c2cc(-c3ccccc3)nc3nc(-c4ccccc4)nn23)cc1 [Compound 9b, 7-(4-Chlorophenyl)-2,5-diphenyl-1,2,4-triazolo[1,5-a]pyrimidine] | 24 | 21 | 11 | 23 | 23 | 15 |
| 218 to 220 | Cc1ccc(-c2cc(-c3ccccc3)nc3nc(-c4ccccc4)nn23)cc1 [Compound 9c, 2,5-Diphenyl-7-p-tolyl-1,2,4-triazolo[1,5-a]pyrimidine] | 13 | 11 | 7 | 15 | 13 | 10 |
| 260 to 262 | Clc1ccc(-c2cc(-c3ccccc3)n3nc(-c4ccccc4)nc3n2)cc1 [Compound 9e, 5-(4-Chlorophenyl)-2,7-diphenyl-1,2,4-triazolo[1,5-a]pyrimidine] | 11 | 10 | 5 | 12 | 12 | 8 |
| 202 to 204 | Clc1ccc(-c2cc(-c3ccc(Cl)cc3)n3nc(-c4ccccc4)nc3n2)cc1 [Compound 9f, 5,7-Bis(4-Chlorophenyl)-2-phenyl-1,2,4-triazolo[1,5-a]pyrimidine] | 18 | 14 | 8 | 15 | 15 | 12 |

Continued, compound first:

| Compound | melting point [°C] | Inhibition Zone (IZ) Diameter [1] [mm/mL] | Inhibition Zone (IZ) Diameter [2] [mm/mL] | Inhibition Zone (IZ) Diameter [3] [mm/mL] | Inhibition Zone (IZ) Diameter [4] | Inhibition Zone (IZ) Diameter [5] [mm/mL] | Inhibition Zone (IZ) Diameter [6] [mm] |
| --- | --- | --- | --- | --- | --- | --- | --- |
| c1ccc(-c2cc(-c3ccccc3)n3nc(-c4ccccc4)nc3n2)cc1 [Compound 9a, 2,5,7-Triphenyl-1,2,4-triazolo[1,5-a]pyrimidine] | 210 to 212 | 12 | 12 | 7 | 14 | 14 | 10 |
| COc1ccc(-c2cc(-c3ccc(Cl)cc3)nc3nc(-c4ccccc4)nn23)cc1 [Compound 9h, 5-(4-Chlorophenyl)-7-(4-methoxyphenyl)-2-phenyl-1,2,4-triazolo[1,5-a]pyrimidine] |  | 12 | 9 | 5 |  | 11 |  |
| Cc1ccc(-c2cc(-c3ccccc3)n3nc(-c4ccccc4)nc3n2)cc1 [Compound 9i, 2,7-Diphenyl-5-p-tolyl-1,2,4-triazolo[1,5-a]pyrimidine] |  | 29 | 28 | 17 |  | 30 |  |
| Cc1ccc(-c2cc(-c3ccc(Cl)cc3)n3nc(-c4ccccc4)nc3n2)cc1 [Compound 9j, 7-(4-Chlorophenyl)-2-phenyl-5-p-tolyl-1,2,4-triazolo[1,5-a]-pyrimidine] |  | 20 | 20 | 10 |  | 20 |  |
| COc1ccc(-c2cc(-c3ccc(C)cc3)nc3nc(-c4ccccc4)nn23)cc1 [Compound 9l, 7-(4-Methoxyphenyl)-2-phenyl-5-p-tolyl-1,2,4-triazolo[1,5-a]pyrimidine] | 222 to 224 | 22 | 23 | 15 | 26 | 23 | 17 |
